Measurements reported in patent US20220089575A1, “FARNESOID X RECEPTOR AGONISTS AND USES THEREOF” (Metacrine, Inc., priority 2017, published 2022).

Biological target: T1, hFXR (Homo sapiens, UniProt Q96RI1)
T1 construct: expressed in transfected cells; host or cells: CV-1 cells
T1 sequence (Q96RI1 1-486): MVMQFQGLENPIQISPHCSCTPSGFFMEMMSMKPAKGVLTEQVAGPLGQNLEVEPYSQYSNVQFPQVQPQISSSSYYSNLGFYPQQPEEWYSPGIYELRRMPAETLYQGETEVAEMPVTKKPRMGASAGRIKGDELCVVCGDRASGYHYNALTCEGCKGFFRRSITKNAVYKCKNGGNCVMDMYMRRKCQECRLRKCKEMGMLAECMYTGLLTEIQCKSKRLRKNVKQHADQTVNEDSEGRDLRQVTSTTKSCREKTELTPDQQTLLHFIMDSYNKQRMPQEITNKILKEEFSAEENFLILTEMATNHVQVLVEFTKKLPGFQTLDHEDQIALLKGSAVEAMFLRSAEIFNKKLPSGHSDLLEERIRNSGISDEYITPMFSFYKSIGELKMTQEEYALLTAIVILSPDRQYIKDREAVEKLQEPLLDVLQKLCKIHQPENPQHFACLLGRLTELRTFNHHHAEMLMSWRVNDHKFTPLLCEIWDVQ
T1 sequence (P19793 1-462 partner): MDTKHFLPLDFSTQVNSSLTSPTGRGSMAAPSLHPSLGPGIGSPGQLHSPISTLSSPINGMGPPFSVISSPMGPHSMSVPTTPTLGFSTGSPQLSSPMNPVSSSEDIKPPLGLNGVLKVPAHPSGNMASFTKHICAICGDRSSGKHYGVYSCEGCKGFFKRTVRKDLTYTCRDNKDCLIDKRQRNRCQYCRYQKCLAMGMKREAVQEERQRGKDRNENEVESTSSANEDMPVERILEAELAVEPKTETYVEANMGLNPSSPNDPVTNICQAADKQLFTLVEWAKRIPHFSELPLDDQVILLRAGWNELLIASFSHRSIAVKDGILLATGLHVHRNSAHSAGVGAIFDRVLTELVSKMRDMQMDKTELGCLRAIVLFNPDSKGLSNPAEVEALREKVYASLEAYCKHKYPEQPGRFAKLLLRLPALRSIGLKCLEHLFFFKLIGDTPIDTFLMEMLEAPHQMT
Assay: In Vitro FXR Assay (TK): TK-ECRE-luc reporter in transfected CV-1 cells
Type: cell-based
Conditions: 18 hrs, luminescence, maximum efficacy of <25% of the Fexarmine control classified as '+'
Method in brief: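 CV-1 cells in DMEM with 10% charcoal-stripped FBS were co-transfected with hFXR, hRXR, TK-ECRE-luc reporter and pCMX-YFP plasmids. After 18 h, compounds serially diluted in DMSO were added for a further 18 h, then cells were lysed and luminescence read.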

Row | SMILES | EC50
1 | COc1ccc([C@H]2CC[C@H](CN(c3cc(-c4coc(C5CC5)n4)ccn3)C(=O)[C@H]3CC[C@H](NC(=O)C4CCC4)CC3)CC2)nc1C [Compound 30.02, trans-4-(cyclobutanecarboxamido)-trans-(4-(2-cyclopropyloxazol-4-yl)pyridine-2-yl)-N-((trans-4-(5-methoxy-6-methylpyridin-2-yl)cyclohexyl)methyl) cyclohexanecarboxamide] | ≤ 250 nM
2 | CNC(=O)O[C@H]1CC[C@H](C(=O)N(C[C@H]2CC[C@H](c3ccc(OC)c(C#N)c3)CC2)c2cccc(-c3cnn(C(C)C)c3)c2)CC1 [Compound 5.15, trans-4-(((trans-4-(3-Cyano-4-methoxyphenyl)cyclohexyl)methyl)(3-(1-Isopropyl-1H-pyrazol-4-yl)phenyl)carbamoyl)cyclohexyl methylcarbamate] | ≤ 250 nM
3 | COc1ncc(-c2cccc(N(C[C@H]3CC[C@H](c4ccc(OC)c(C)c4)CC3)C(=O)[C@H]3CC[C@H](C(=O)OC)CC3)c2)s1 [Compound 18.07, trans-Methyl 4-(((trans-4-(4-methoxy-3-methylphenyl)cyclohexyl)methyl)(3-(2-methoxythiazol-5-yl)phenyl)carbamoyl)cyclohexanecarboxylate] | ≤ 250 nM
4 | COc1ccc([C@H]2CC[C@H](CN(c3cc(-c4coc(C5CC5)n4)ccn3)C(=O)[C@H]3CC[C@H](OC(=O)N4CC(O)C4)CC3)CC2)cc1C#N [Compound 7.69, trans-4-(((trans-4-(3-Cyano-4-methoxyphenyl)cyclohexyl)methyl)(4-(2-cyclopropyloxazol-4-yl)pyridine-2-yl)carbamoyl)cyclohexyl 3-hydroxyazetidine-1-carboxylate] | ≤ 250 nM
5 | COc1ccc([C@H]2CC[C@H](CN(c3cccc(-c4cnn(C5CC5)c4)c3)C(=O)[C@H]3CC[C@H](OC(=O)NC[C@@H](O)CO)CC3)CC2)cc1C [Compound 6.13, trans-4-((3-(1-Cyclopropyl-1H-pyrazol-4-yl)phenyl)((trans-4-(4-methoxy-3-methylphenyl)cyclohexyl)methyl)carbamoyl)cyclohexyl ((R)-2,3-dihydroxypropyl)carbamate] | ≤ 250 nM
6 | COc1ccc([C@H]2CC[C@H](CN(c3cccc(-c4cnn(C5CC5)c4)c3)C(=O)[C@H]3CC[C@H](OC(=O)NCCO)CC3)CC2)nc1C#N [Compound 6.28, trans-4-(((trans-4-(6-Cyano-5-methoxypyridin-2-yl)cyclohexyl)methyl) (3-(1-cyclopropyl-1H-pyrazol-4-yl)phenyl)carbamoyl)cyclohexyl (2-hydroxyethyl)carbamate] | ≤ 250 nM
7 | COc1ccc([C@H]2CC[C@H](CN(c3cccc(-c4coc(C5CC5)n4)c3)C(=O)[C@H]3CC[C@H](OC(=O)NCCO)CC3)CC2)nc1C [Compound 6.50, trans-4-((3-(2-Cyclopropyloxazol-4-yl)phenyl)((trans-4-(5-methoxy-6-methylpyridin-2-yl)cyclohexyl)methyl)carbamoyl)cyclohexyl (2-hydroxyethyl)carbamate] | ≤ 250 nM
8 | CCNC(=O)O[C@H]1CC[C@H](C(=O)N(C[C@H]2CC[C@H](c3ccc(OC)c(C)n3)CC2)c2cc(-c3coc(C4CC4)n3)ccn2)CC1 [Compound 5.47, trans-4-((4-(2-Cyclopropyloxazol-4-yl)pyridine-2-yl)((trans-4-(5-methoxy-6-methylpyridin-2-yl)cyclohexyl)methyl)carbamoyl)cyclohexyl ethylcarbamate] | ≤ 250 nM
9 | CNC(=O)O[C@H]1CC[C@H](C(=O)N(C[C@H]2CC[C@H](c3ccc(OC)c(C)n3)CC2)c2cccc(-c3cnn(C4CCC4)c3)c2)CC1 [Compound 5.21, trans-4-((3-(1-Cyclobutyl-1H-pyrazol-4-yl)phenyl)((trans-4-(5-methoxy-6-methylpyridin-2-yl)cyclohexyl)methyl)carbamoyl)cyclohexyl methylcarbamate] | ≤ 250 nM
10 | CNC(=O)O[C@H]1CC[C@H](C(=O)N(CC23CCC(c4ccc(N(C)C)nc4)(CC2)CC3)c2cccc(-c3cnc(C4CC4)s3)c2)CC1 [Compound 1.02, 4-((3-(2-Cyclopropylthiazol-5-yl)phenyl)((4-(6-(dimethylamino)pyridin-3-yl)bicyclo[2.2.2]octan-1-yl)methyl)carbamoyl)cyclohexyl trans-methylcarbamate] | ≤ 250 nM
11 | CNC(=O)O[C@H]1CC[C@H](C(=O)N(C[C@H]2CC[C@H](c3ccc(OC)c(C)n3)CC2)c2cc(-c3cnn(C4CC4)c3)ccn2)CC1 [Compound 5.13, trans-4-((4-(1-Cyclopropyl-1H-pyrazol-4-yl)pyridin-2-yl)((trans-4-(5-methoxy-6-methylpyridin-2-yl)cyclohexyl)methyl)carbamoyl)cyclohexyl methylcarbamate] | ≤ 250 nM
12 | CNC(=O)O[C@H]1CC[C@H](C(=O)N(C[C@H]2CC[C@H](c3ccc(OC)c(C#N)c3)CC2)c2cc(-c3cnn(C(C)C)c3)ccn2)CC1 [Compound 5.18, trans-4-(((trans-4-(3-Cyano-4-methoxyphenyl)cyclohexyl)methyl)(4-(1-isopropyl-1H-pyrazol-4-yl)pyridin-2-yl)carbamoyl)cyclohexyl methylcarbamate] | ≤ 250 nM
13 | COc1ccc([C@H]2CC[C@H](CN(c3cc(-c4cnn(C5CC5)c4)ccn3)C(=O)[C@H]3CC[C@H](C(=O)OC)CC3)CC2)nc1C [Compound 18.17, trans-Methyl 4-((4-(1-cyclopropyl-1H-pyrazol-4-yl)pyridin-2-yl)((trans-4-(5-methoxy-6-methylpyridin-2-yl)cyclohexyl)methyl)carbamoyl) cyclohexanecarboxylate] | 250 to 1000 nM
14 | CNC1CN(C(=O)O[C@H]2CC[C@H](C(=O)N(C[C@H]3CC[C@H](c4ccc(OC)c(C)c4)CC3)c3cccc(-c4cnn(C5CC5)c4)c3)CC2)C1 [Compound 7.37] | ≤ 250 nM
15 | COc1ccc([C@H]2CC[C@H](CN(c3cccc(-c4cnn(C(C)C)c4)c3)C(=O)[C@H]3CC[C@H](CC(=O)O)CC3)CC2)nc1C [Compound 20.13, 2-(trans-4-((3-(1-Isopropyl-1H-pyrazol-4-yl)phenyl)((trans-4-(5-methoxy-6-methylpyridin-2-yl)cyclohexyl)methyl)carbamoyl)cyclohexyl)acetic acid] | ≤ 250 nM
16 | COc1ccc([C@H]2CC[C@H](CN(c3cccc(-c4cnn(C5CC5)c4)c3)C(=O)[C@H]3CC[C@H](OC(=O)NC(C)C)CC3)CC2)cc1C [Compound 4.05, trans-4-((3-(1-Cyclopropyl-1H-pyrazol-4-yl)phenyl)((trans-4-(4-methoxy-3-methylphenyl)cyclohexyl)methyl)carbamoyl)cyclohexyl isopropylcarbamate] | ≤ 250 nM
17 | COc1ccc([C@H]2CC[C@H](CN(c3cc(-c4cnn(C(C)C)c4)ccn3)C(=O)[C@H]3CC[C@H](OC(=O)N4CC(O)C4)CC3)CC2)cc1C#N [Compound 7.22, trans-4-(((trans-4-(3-Cyano-4-methoxyphenyl)cyclohexyl)methyl)(4-(1-isopropyl-1H-pyrazol-4-yl)pyridin-2-yl)carbamoyl)cyclohexyl 3-hydroxyazetidine-1-carboxylate] | ≤ 250 nM
18 | COc1ccc([C@H]2CC[C@H](CN(c3cccc(-c4cnc(C5CC5)s4)c3)C(=O)[C@H]3CC[C@H](C(=O)OC)CC3)CC2)nc1C#N [Compound 18.09, trans-Methyl 4-(((trans-4-(6-cyano-5-methoxypyridin-2-yl)cyclohexyl)methyl)(3-(2-cyclopropylthiazol-5-yl)phenyl)carbamoyl) cyclohexanecarboxylate] | ≤ 250 nM
19 | COc1ccc([C@H]2CC[C@H](CN(c3cc(-c4coc(C5CC5)n4)ccn3)C(=O)[C@H]3CC[C@H](NC(=O)C4CC(OC)C4)CC3)CC2)nc1C (stereo partly drawn) [Compound 30.03, trans-N-(4-(2-Cyclopropyloxazol-4-yl)pyridin-2-yl)-N-((trans-4-(5-methoxy-6-methylpyridin-2-yl)cyclohexyl)methyl)-4-(3-methoxycyclobutanecarboxamido) cyclohexanecarboxamide] | ≤ 250 nM
20 | COc1ccc(C23CCC(CN(c4cccc(-c5cnn(C6CC6)c5)c4)C(=O)[C@H]4CC[C@H](NC(=O)COC(C)=O)CC4)(CC2)CC3)cc1C [Compound 26.08, 2-((4-((3-(1-Cyclopropyl-1H-pyrazol-4-yl)phenyl)((4-(4-methoxy-3-methylphenyl)bicyclo[2.2.2]octan-1-yl)methyl)carbamoyl)cyclohexyl)amino)-2-oxoethyl trans-acetate] | ≤ 250 nM
